Where two headings read alike, the source gives them in different places.
Assays:
BTK [1] = target: T1, BTK (Homo sapiens (Human), UniProt Q06187); test: Mass spectrometry for BTK (covalent modification of intact protein); type: binding; settings: 1 hr, 10x fold excess of compound
Procedure: Intact BTK was incubated for 1 hr at a 10× fold excess of I-7 to protein. Aliquots (2 μl) of the samples were diluted with 10 μl of 0.1% TFA prior to micro C4 ZipTipping directly onto the MALDI target using Sinapinic acid as the desorption matrix (10 mg/ml in 0.1% TFA:Acetonitrile 20:80).

JAK3 = JAK3 (Homo sapiens (Human), UniProt P52333); test: Omnia assay for potency assessment against the active form of JAK3; type: biochemical; settings: read-out: JAK3 Inhibition
Procedure: Briefly, 10× stocks of EGFR-WT (PV3872) from Invitrogen and EGFR-T790M/L858R (40350) from BPS Bioscience, San Diego, Calif., 1.13×ATP (AS001A) and appropriate Tyr-Sox conjugated peptide substrates (KCZ1001) were prepared in 1× kinase reaction buffer consisting of 20 mM Tris, pH 7.5, 5 mM MgCl2, 1 mM EGTA, 5 mM β-glycerophosphate, 5% glycerol (10× stock, KB002A) and 0.2 mM DTT (DS001A).
The Omnia Assay Protocol for potency assessment against JAK3 was performed in a substantially similar manner as that described in Example 251 above except that the modified JAK3-optimized reagent conditions were:
[JAK3]=5 nM, [ATP]=5 μM, [Y12-Sox]=5 μM (ATP KMapp˜5 μM).

BTK [2] = target: T1, BTK; test: Washout experiment with Ramos cells; type: cell-based; settings: 100 nM compound 1 hour, then washout
Procedure: Ramos cells were serum starved for one hour in RPMI media +1% glutamine at 37° C. After starvation, Ramos cells were treated with 100 nM compound diluted in serum free RPMI media for 1 hour. After compound treatment, the media was removed and cells were washed with compound-free media. Subsequently, Ramos cells were washed every 2 hours and resuspended in fresh compound-free media. Cells were collected at specified timepoints, treated with 1 ug anti-human IgM (Southern Biotech cat #2022-01) for 10 minutes on ice to induce BCR signaling and then washed in PBS. Ramos cells were then lysed in Cell Extraction Buffer (Invitrogen FNN0011) supplemented with Roche complete protease inhibitor tablets (Roche 11697498001) and phosphatase inhibitors (Roche 04 906 837 001) and 18 ug total protein lysate was loaded in each lane. Inhibition of BTK kinase activity was assayed by measuring its substrate (PLCγ2) phosphorylation by western blot with phospho-specific antibodies from Cell Signaling Technologies cat #3871. The results of this experiment with compounds I-2, I-4 and I-7 are depicted in FIGS. 1, 2 and 3.

[3] = tested on: B cell lymphoma cell lines; test: B cell lymphoma proliferation assay; type: cell-based
Human naïve B cells = test: Human primary B cell proliferation assay; type: cell-based; settings: 5 μg/ml α-IgM 72 hours, 3H-thymidine incorporation
Procedure: Human naïve B cells were purified from 100 mL whole blood using a MACS purification kit designed to isolate CD19+, IgD+ cells by negative selection. Purified naïve B cells were resuspended in RPMI complete and stimulated with 5 μg/ml α-IgM for 72 hours. ^3H-Thymidine was included in the culture media for the final 16 h, cells were harvested and ^3H incorporation measured. Inhibition of B cell proliferation correlates with inhibition of BTK substrate phosphorylation after α-IgM stimulation.

BTK [4] = target: BTK (Rattus norvegicus, UniProt Q5S255); test: BTK occupancy from in vivo samples by ELISA; settings: po, rats dosed orally 30 mg/kg
Procedure: All samples were prepared with equal concentrations of Biorad lysis buffer (Hercules, Calif., USA), 0.5% bovine serum albumin in PBS with 0.05% Tween-20 to give a final concentration of 1 μM I-215. Samples were incubated in a mixing plate for 1 hr at room temperature while shaking to allow probe compound I-215 to bind to free BTK. After incubation with I-215, samples were added to a washed, streptavidin-coated ELISA plate (Pierce, Rockford, Ill., USA) and incubated for 1 hr at room temperature while shaking. The plate was then washed with PBS containing 0.05% Tween-20 using an automatic plate washer. Anti-BTK antibody was prepared at 1:1000 dilution in 0.5% BSA in PBS (0.05% Tween-20) and added to the ELISA plate. The plate was incubated for 1 hr at room temperature while shaking. The plate was washed as described above and the secondary HRP antibody was prepared at 1:5000 dilution in 0.5% BSA in PBS (0.05% Tween-20). The plate was incubated and washed as described above. TMB was added to the plate, and OD650 was monitored until reaching 1 OD unit. The reaction was then stopped with addition of H2SO4. The plate was analyzed using Gen 5 software, and a 4 Parameter Logistic curve was employed to quantitate samples. Recombinant BTK (Invitrogen, Carlsbad, Calif., USA) was used for the standard curve.
Rats were dosed orally with 30 mg/kg of compound and spleens were harvested either 2 or 24 hours after compound treatment. Rat spleens were disrupted between two microscope slides coated with frosted glass to recover single cell suspensions. Red blood cells were lysed by incubating with RBC lysis buffer (Boston BioProducts) for 2 minutes at room temperature, the cells were then resuspended in RPMI complete media and pelleted by centrifugation. Rat B cells were isolated by positive selection with B220+ antibody-magnetic bead conjugates, purified by MACS column and lysed in Bio-Rad lysis buffer at a concentration of 10 million cells/100 μl. Lysates were analyzed employing the biotinylated probe compound I-215 in an ELISA protocol as described in detail in Example 278.

EGFR-WT = EGFR-WT (Homo sapiens (Human), UniProt P00533); test: Omnia assay for potency assessment against EGFR (WT); type: biochemical; settings: wild-type EGFR; read-out: EGFR Wild Type Inhibition
ITK = ITK (Homo sapiens (Human), UniProt Q08881); test: Omnia assay for potency assessment against active forms of ITK kinase; type: biochemical; settings: [ITK]=10 nM, [ATP]=25 μM, [Y6-Sox]=10 μM; read-out: ITK Inhibition
Procedure: [ITK]=10 nM, [ATP]=25 μM, [Y6-Sox]=10 μM (ATP KMapp=33 μM).

BTK [5] = target: T1, BTK; test: Omnia assay for potency assessment against BTK; type: biochemical; settings: [BTK]=5 nm; read-out: BTK Inhibition
Procedure: Omnia Assay Protocol for Potency Assessment Against BTK
The modified BTK-optimized reagent conditions for the above protocol are:
[BTK]=5 nm, [ATP]=40 mM, [Y5-Sox]=10 mM (ATP KMapp˜36 mM).

[6] = Homo sapiens, DOHH-2, DOHH2 B cell lymphoma cell line, read-out: EC50 (μM) DOHH2
[7] = Homo sapiens, WSUDLCL2, WSU-DLCL2 B cell lymphoma cell line, read-out: EC50 (μM) WSU-DLCL2
[8] = DHL4 B cell lymphoma cell line, read-out: EC50 (μM) DHL4

T1 sequence (Q06187 whole entry): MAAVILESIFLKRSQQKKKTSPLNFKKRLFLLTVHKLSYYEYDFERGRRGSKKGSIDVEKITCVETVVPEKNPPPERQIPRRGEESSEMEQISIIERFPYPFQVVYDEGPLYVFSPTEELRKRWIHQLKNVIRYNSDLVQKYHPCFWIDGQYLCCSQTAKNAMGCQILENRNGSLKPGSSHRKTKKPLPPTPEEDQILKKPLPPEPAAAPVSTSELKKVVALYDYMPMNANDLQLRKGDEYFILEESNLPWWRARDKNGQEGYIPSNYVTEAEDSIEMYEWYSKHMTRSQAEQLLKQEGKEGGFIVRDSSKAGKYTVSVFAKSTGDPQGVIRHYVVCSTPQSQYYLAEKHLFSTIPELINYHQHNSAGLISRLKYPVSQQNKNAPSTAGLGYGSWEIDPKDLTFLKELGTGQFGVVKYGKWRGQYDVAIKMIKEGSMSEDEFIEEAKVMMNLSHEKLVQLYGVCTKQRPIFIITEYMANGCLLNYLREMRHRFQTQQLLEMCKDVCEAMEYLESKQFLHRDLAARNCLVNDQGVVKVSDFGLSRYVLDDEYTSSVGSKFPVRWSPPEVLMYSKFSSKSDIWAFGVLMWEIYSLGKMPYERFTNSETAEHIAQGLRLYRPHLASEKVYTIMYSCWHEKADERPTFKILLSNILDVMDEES
JAK3, sequence (P52333 whole entry): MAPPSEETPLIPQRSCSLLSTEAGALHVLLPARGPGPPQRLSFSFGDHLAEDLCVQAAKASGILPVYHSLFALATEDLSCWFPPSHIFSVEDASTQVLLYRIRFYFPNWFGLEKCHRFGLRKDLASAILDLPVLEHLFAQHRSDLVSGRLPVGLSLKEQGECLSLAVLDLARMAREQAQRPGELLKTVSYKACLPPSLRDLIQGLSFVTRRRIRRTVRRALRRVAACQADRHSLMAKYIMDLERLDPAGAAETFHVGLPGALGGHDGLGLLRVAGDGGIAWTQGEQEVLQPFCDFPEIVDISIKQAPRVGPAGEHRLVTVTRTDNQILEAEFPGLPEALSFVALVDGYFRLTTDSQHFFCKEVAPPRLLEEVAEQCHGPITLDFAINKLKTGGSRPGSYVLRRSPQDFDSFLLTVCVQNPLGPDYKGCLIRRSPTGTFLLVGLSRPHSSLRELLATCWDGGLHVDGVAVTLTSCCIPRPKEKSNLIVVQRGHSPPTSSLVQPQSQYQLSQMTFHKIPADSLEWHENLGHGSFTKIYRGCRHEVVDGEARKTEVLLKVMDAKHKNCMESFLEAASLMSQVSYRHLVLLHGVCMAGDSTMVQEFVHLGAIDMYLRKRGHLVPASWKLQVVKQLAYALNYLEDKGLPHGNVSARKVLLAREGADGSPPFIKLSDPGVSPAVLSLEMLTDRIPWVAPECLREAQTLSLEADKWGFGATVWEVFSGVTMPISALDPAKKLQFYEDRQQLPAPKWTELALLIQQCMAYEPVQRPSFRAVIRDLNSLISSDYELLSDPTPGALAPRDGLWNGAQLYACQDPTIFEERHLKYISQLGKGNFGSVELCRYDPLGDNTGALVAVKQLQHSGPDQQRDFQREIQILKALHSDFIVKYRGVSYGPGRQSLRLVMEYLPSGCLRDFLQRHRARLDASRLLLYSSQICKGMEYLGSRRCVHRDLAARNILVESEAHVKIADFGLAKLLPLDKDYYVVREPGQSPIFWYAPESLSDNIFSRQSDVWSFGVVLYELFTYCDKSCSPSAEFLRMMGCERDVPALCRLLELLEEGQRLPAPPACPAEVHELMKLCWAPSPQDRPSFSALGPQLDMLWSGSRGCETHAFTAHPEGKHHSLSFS
BTK (Rattus norvegicus, UniProt Q5S255), sequence (Q5S255 1-660): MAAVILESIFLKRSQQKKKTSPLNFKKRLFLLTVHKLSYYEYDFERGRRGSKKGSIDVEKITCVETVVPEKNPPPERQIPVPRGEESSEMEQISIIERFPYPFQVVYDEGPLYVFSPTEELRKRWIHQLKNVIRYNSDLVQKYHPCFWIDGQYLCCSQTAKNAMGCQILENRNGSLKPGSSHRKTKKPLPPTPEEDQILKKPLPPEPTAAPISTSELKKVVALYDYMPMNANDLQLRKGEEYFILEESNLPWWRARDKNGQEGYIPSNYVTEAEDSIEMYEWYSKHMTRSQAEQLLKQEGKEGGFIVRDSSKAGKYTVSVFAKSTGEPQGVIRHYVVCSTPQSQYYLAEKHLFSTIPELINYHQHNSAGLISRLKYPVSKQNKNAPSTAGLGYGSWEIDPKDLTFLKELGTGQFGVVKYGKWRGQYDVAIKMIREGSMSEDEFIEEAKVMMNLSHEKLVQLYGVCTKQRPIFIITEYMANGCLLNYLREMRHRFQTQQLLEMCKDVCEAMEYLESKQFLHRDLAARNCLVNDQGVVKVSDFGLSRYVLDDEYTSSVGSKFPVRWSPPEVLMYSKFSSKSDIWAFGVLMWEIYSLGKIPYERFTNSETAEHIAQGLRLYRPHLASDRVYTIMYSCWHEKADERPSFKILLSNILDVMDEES
ITK, sequence (Q08881 whole entry): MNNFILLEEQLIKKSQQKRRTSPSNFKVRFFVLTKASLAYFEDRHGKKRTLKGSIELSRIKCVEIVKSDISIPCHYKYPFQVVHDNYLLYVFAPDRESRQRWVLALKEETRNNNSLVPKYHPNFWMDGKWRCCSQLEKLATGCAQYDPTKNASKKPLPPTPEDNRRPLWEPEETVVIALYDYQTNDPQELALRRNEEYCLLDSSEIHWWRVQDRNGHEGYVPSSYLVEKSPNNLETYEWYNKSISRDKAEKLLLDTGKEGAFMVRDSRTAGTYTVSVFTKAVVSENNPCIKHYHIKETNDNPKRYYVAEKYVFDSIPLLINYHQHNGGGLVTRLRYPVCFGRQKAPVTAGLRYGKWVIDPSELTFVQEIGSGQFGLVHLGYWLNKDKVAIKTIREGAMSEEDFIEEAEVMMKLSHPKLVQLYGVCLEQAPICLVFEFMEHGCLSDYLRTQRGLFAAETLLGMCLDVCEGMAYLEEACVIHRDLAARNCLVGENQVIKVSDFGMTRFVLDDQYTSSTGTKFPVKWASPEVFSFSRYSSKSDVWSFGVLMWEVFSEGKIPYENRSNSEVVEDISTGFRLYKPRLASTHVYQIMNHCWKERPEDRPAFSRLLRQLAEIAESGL

For `C=C(C#N)C(O)c1cccc(Nc2nc(Nc3ccc(OCCOC)cc3)ncc2F)c1` (centres unmarked) [Compound I-71, 2-((3-(5-fluoro-2-(4-(2-methoxyethoxy)phenylamino)pyrimidin-4-ylamino)phenyl)(hydroxy)methyl)acrylonitrile], the “covalent modification of BTK by mass spectrometry” value (“covalent modification of BTK” below) (BTK [1]) was “completely modify”.

For `C=CC(=O)Nc1cccc(Nc2nc(Nc3ccc(F)cc3)ncc2F)c1` [Compound I-247, N-(3-(5-fluoro-2-(4-fluorophenylamino)pyrimidin-4-ylamino)phenyl)acrylamide], the IC50 (JAK3) was under 10 nM, the “BTK Inhibition Type” value (BTK [2]) was “irreversible” and the EC50 [3, 6] was 0.1 to 1 µM. The EC50 [3, 7] was 1 to 10 µM.

`C=CC(=O)Nc1cccc(Nc2nc(Nc3ccc(OC)nc3)ncc2F)c1` [Compound I-243, N-(3-(5-fluoro-2-(6-methoxypyridin-3-ylamino)pyrimidin-4-ylamino)phenyl)acrylamide] was tested, and the IC50 (JAK3) was under 10 nM, the “BTK Inhibition Type” value (BTK [2]) was “irreversible” and the EC50 [3, 6] was 1 to 10 µM. The EC50 [3, 7] was 1 to 10 µM.

For `C=CC(=O)Nc1cccc(Oc2nc(Nc3ccccc3)ncc2C)c1` [Compound I-248, N-(3-(5-methyl-2-(phenylamino)pyrimidin-4-yloxy)phenyl)acrylamide], the IC50 (JAK3) was under 10 nM, the “BTK Inhibition Type” value (BTK [2]) was “irreversible” and the EC50 [3, 6] was 1 to 10 µM. It also gave an EC50 [3, 7] of 1 to 10 µM.

`C=CC(=O)Nc1cccc(Nc2nc(Nc3cccc(OC(F)(F)F)c3)ncc2F)c1` [Compound I-244, N-(3-(5-fluoro-2-(3-(trifluoromethoxy)phenylamino)pyrimidin-4-ylamino)phenyl)acrylamide] was tested, and the IC50 (JAK3) was under 10 nM, the “covalent modification of BTK” value (BTK [1]) was “completely modify” and the EC50 [3, 8] was 1 to 10 µM. The EC50 [3, 6] was 0.1 to 1 µM and the EC50 [3, 7] was 1 to 10 µM.

For `C=CC(=O)Nc1cccc(Nc2nc(Nc3cccc(OC)c3)ncc2C(F)(F)F)c1` [Compound I-242, N-(3-(5-trifluoromethyl-2-(3-methoxyphenylamino)pyrimidin-4-ylamino)phenyl)acrylamide], the IC50 (JAK3) was under 10 nM, the “BTK Inhibition Type” value (BTK [2]) was “irreversible” and the EC50 [3, 6] was 1 to 10 µM. It also gave an EC50 [3, 7] of 1 to 10 µM.

With `C=CC(=O)Nc1cccc(Nc2nc(Nc3ccccc3)ncc2F)c1` [Compound I-28, N-(3-(5-fluoro-2-(phenylamino)pyrimidin-4-ylamino)phenyl)acrylamide] the IC50 (JAK3) was under 10 nM, the “BTK Inhibition Type” value (BTK [2]) was “irreversible” and the EC50 [3, 6] was 1 to 10 µM. For the same compound, the EC50 [3, 7] was 1 to 10 µM.

In the case of `C#CCOc1cccc(Nc2ncc(C)c(Nc3cccc(NC(=O)C=C)c3)n2)c1` [Compound I-35, N-(3-(5-methyl-2-(3-(prop-2-ynyloxy)phenylamino)pyrimidin-4-ylamino)phenyl) acrylamide], the IC50 (JAK3) is reported as under 10 nM, the “BTK Inhibition Type” value (BTK [2]) is reported as “irreversible” and the EC50 [3, 6] is reported as 1 to 10 µM. For the same compound, the EC50 [3, 7] was 1 to 10 µM.

Compound `C=CC(=O)N1CCC[C@@H](Oc2nc(Nc3cccc(OC)c3)ncc2F)C1` [Compound I-190, (R)-1-(3-(5-fluoro-2-(3-methoxyphenylamino)pyrimidin-4-yloxy)piperidin-1-yl)prop-2-en-1-one] has an EC50 (Human naïve B cells) of 10 to 100 nM, a receptor occupancy at 30 mg/kg (BTK [4]; spleen B cells harvested 2 hours after treatment, read-out: % BTK Occupancy 2 h) of 18% and a receptor occupancy at 30 mg/kg (BTK [4]; spleen B cells harvested 24 hours after treatment, read-out: % BTK Occupancy 24 h) of 13%. For the same compound, the EC50 [3, 6] was over 10 µM.

For `CC(C)=CC(=O)c1cccc(Nc2nc(Nc3cccc(OCCN(C)C)c3)ncc2F)c1` [Compound I-207], the “covalent modification of BTK” value (BTK [1]) was “completely modify”, the EC50 [3, 6] was 0.1 to 1 µM and the EC50 [3, 7] was 1 to 10 µM.

With `C=CC(=O)N(C)Cc1ccc(Nc2nc(Nc3ccccc3)ncc2C)cc1` [Compound I-219, N-methyl-N-(4-(5-methyl-2-(phenylamino)pyrimidin-4-ylamino)benzyl)acrylamide] the “covalent modification of BTK” value (BTK [1]) was “completely modify”.

In the case of `CCC(=O)Nc1cccc(Nc2nc(Nc3ccccc3)ncc2C)c1` [I^R-7, N-(3-(5-methyl-2-(phenylamino)pyrimidin-4-ylamino)phenyl) propionamide], the IC50 (JAK3) is reported as 1000 to 10000 nM and the EC50 (Human naïve B cells) is reported as over 1000 nM.

In the case of “2-((4-(5-fluoro-2-(3-trifluoromethoxyphenylamino)pyrimidin-4-ylamino)phenyl)(hydroxy)methyl)acrylonitrile [Compound I-163]”, the “covalent modification of BTK” value (BTK [1]) is reported as “completely modify”.

“4-(3-acrylamidophenoxy)-2-(3-methoxyphenylamino)-pyrimidine-5-carboxylic acid phenylamide [Compound I-200]” gave an IC50 (EGFR-WT) of under 10 nM, an IC50 (ITK) of over 10000 nM and an IC50 (BTK [5]) of under 10 nM.

In the case of `C=CC(=O)N1CCC[C@@H](Nc2nc(Nc3cccc(OC)c3)ncc2F)C1` [Compound I-195, (R)-1-(3-(5-fluoro-2-(3-methoxyphenylamino)pyrimidin-4-ylamino)piperidin-1-yl)prop-2-en-1-one], the “covalent modification of BTK” value (BTK [1]) is reported as “completely modify”, the EC50 [3, 8] is reported as over 10 µM and the EC50 [3, 6] is reported as 1 to 10 µM. For the same compound, the EC50 [3, 7] was over 10 µM.

With `C=C(C#N)C(O)c1ccc(Nc2nc(Nc3ccccc3)ncc2F)cc1` (centres unmarked) [Compound I-161, 2-((4-(5-fluoro-2-(phenylamino)pyrimidin-4-ylamino)phenyl)(hydroxy)methyl)acrylonitrile] the “covalent modification of BTK” value (BTK [1]) was “completely modify”, the EC50 [3, 8] was 1 to 10 µM and the EC50 [3, 6] was 1 to 10 µM.

In the case of `C=CC(=O)N1CCOc2ccc(Nc3ncc(F)c(Nc4cccc(Cl)c4)n3)cc21` [Compound I-149, 1-(6-(4-(3-chlorophenylamino)-5-fluoropyrimidin-2-ylamino)-2H-benzo[b][1,4]oxazin-4(3H)-yl)prop-2-en-1-one], the “covalent modification of BTK” value (BTK [1]) is reported as “completely modify” and the EC50 [3, 6] is reported as 1 to 10 µM.

From patent US10596172B2 (Celgene CAR LLC, priority 2008, dated 2020)
